Laboratory results from PMC10712727, “Safety, Tolerability, and Pharmacokinetics of Senaparib, a Novel PARP1/2 Inhibitor, in Chinese Patients With Advanced Solid Tumors: A Phase I Trial” (The Oncologist, 2023).

Test system: patients with advanced solid tumors
Experiment: Safety: treatment-emergent and senaparib-related adverse events graded per NCI CTCAE v4.03
Type: in vivo
Procedure: This phase I, open-label, multicenter, dose-escalation, and dose-expansion study was conducted at three national clinical institutions in China. […] At baseline, all patients enrolled in the dose-escalation phase had to have at least one evaluable lesion, and those in the dose-expansion period had to have at least one measurable lesion, according to Response Evaluation Criteria in Solid Tumors version 1.1 (RECIST v1.1).[16] Entry to the dose-expansion cohort required the presence of a BRCA mutation, with the exception of patients with ovarian carcinoma, fallopian tube carcinoma, and primary peritoneal carcinoma. Full study eligibility criteria are provided in Supplementary Table S1.
Dose escalation was conducted using a modified Fibonacci 3 + 3 method (Supplementary Fig. S1).[17] Patients were administered oral senaparib from a planned starting dose of 2 mg once daily (QD), with preliminary dose escalation to 120 mg via nine dose groups, in order of their entry into the study. At a given dose level, each patient received a single dose of senaparib followed by a 7-day washout period. They then entered a continuous dosing period to confirm the safety and PK profile, in which they received senaparib QD from day 1 to day 21 of each 3-week cycle. Progression to the next higher dose required approval from the Data Safety Monitoring Committee (DSMC) upon review of the safety and PK data of the previous dose. A 50-mg twice-daily (BID) dosing group was added (planned enrollment, n = 6 patients) based on a DSMC review of the safety, PK, and efficacy analysis of the completed QD dose groups in the phase I clinical trial of senaparib dose escalation in Australia (NCT03507543), which commenced prior to the start of this trial.
The dose-expansion period included 3 populations: dose groups in which at least one patient achieved complete response (CR) or partial response (PR) per RECIST v1.1[16] and 1 dose group higher (evaluated for safety), as well as the dose group at the maximum tolerated dose (MTD)/recommended phase II dose (RP2D). Each of these groups included those patients in the respective dose-escalation group plus a planned additional 10 patients (approximately 20 patients in the MTD/RP2D group) with BRCA^mut+ solid tumors (ovarian, breast, or prostate cancer were preferred, and ovarian cancer could be BRCA wild type). Patients received senaparib monotherapy orally QD or BID (50-mg dose only) over each 3-week cycle until disease progression or unacceptable toxicity.
DLTs were predefined toxicities (Supplementary Table S2) recorded over the 7 days following the single-dose administration of senaparib and during the first treatment cycle (day 1-day 21) for each dose group in the dose-escalation period only. The MTD was defined as the maximum dose at which ≤1/6 patients experienced a DLT. Senaparib PK parameters were derived from blood samples collected from patients after the single administration, and at regular intervals during the first cycle of the dose-escalation and dose-expansion periods. Plasma concentrations of senaparib were determined using high-performance liquid chromatography-tandem mass spectrometry. Tumor response was assessed every 6 weeks per RECIST v1.1,[16] recording objective response rate (ORR), disease control rate (DCR), duration of response (DOR), and progression-free survival (PFS) by dose level for all patients and for those harboring BRCA^mut+ tumors.

For `O=C(c1cc(Cn2c(=O)[nH]c(=O)c3c(F)cccc32)ccc1F)N1CCN(c2ncccn2)CC1` [Senaparib], the “Pain in extremity, Gr≥3” value (TEAE, 120 mg QD n = 4) was 0 n (%), the “Platelet count decreased, All” value (TEAE, 120 mg QD n = 4) was 1 (25.0) n (%) and the “Platelet count decreased, Gr≥3” value (TEAE, 120 mg QD n = 4) was 0 n (%). For the same molecule, the “Protein in urine, All” value (TEAE, 120 mg QD n = 4) was 1 (25.0) n (%), the “Protein in urine, Gr≥3” value (TEAE, 120 mg QD n = 4) was 0 n (%) and the “Vomiting, All” value (TEAE, 120 mg QD n = 4) was 1 (25.0) n (%). For the same molecule, the “Vomiting, Gr≥3” value (TEAE, 120 mg QD n = 4) was 0 n (%), the “WBC decreased, All” value (TEAE, 120 mg QD n = 4) was 4 (100) n (%) and the “WBC decreased, Gr≥3” value (TEAE, 120 mg QD n = 4) was 0 n (%). For the same molecule, the “ALT increased, All” value (TEAE, Total N = 57) was 10 (17.5) n (%), the “ALT increased, Gr≥3” value (TEAE, Total N = 57) was 1 (1.8) n (%) and the “AST increased, All” value (TEAE, Total N = 57) was 10 (17.5) n (%). For the same molecule, the “AST increased, Gr≥3” value (TEAE, Total N = 57) was 1 (1.8) n (%), the “Abdominal distension, All” value (TEAE, Total N = 57) was 7 (12.3) n (%) and the “Abdominal distension, Gr≥3” value (TEAE, Total N = 57) was 0 n (%). The “Anemia (incl. hemoglobin decreased), Gr≥3” value (TEAE, Total N = 57) was 12 (21.1) n (%), the “Appetite decreased, All” value (TEAE, Total N = 57) was 14 (24.6) n (%) and the “Appetite decreased, Gr≥3” value (TEAE, Total N = 57) was 0 n (%). The “Asthenia, All” value (TEAE, Total N = 57) was 16 (28.1) n (%), the “Asthenia, Gr≥3” value (TEAE, Total N = 57) was 0 n (%) and the “Blood bilirubin increased, All” value (TEAE, Total N = 57) was 8 (14.0) n (%). The “Blood bilirubin increased, Gr≥3” value (TEAE, Total N = 57) was 1 (1.8) n (%), the “Blood creatinine increased, All” value (TEAE, Total N = 57) was 8 (14.0) n (%) and the “Blood creatinine increased, Gr≥3” value (TEAE, Total N = 57) was 0 n (%). For the same molecule, the “Hypokalemia, All” value (TEAE, Total N = 57) was 6 (10.5) n (%), the “Hypokalemia, Gr≥3” value (TEAE, Total N = 57) was 0 n (%) and the “Hyponatremia, All” value (TEAE, Total N = 57) was 7 (12.3) n (%). For the same molecule, the “Hyponatremia, Gr≥3” value (TEAE, Total N = 57) was 1 (1.8) n (%), the “Nausea, All” value (TEAE, Total N = 57) was 14 (24.6) n (%) and the “Nausea, Gr≥3” value (TEAE, Total N = 57) was 0 n (%). The “Neutrophil count decreased, All” value (TEAE, Total N = 57) was 12 (21.1) n (%), the “Neutrophil count decreased, Gr≥3” value (TEAE, Total N = 57) was 3 (5.3) n (%) and the “Pain in extremity, All” value (TEAE, Total N = 57) was 7 (12.3) n (%). The “Pain in extremity, Gr≥3” value (TEAE, Total N = 57) was 2 (3.5) n (%), the “Platelet count decreased, All” value (TEAE, Total N = 57) was 17 (29.8) n (%) and the “Platelet count decreased, Gr≥3” value (TEAE, Total N = 57) was 3 (5.3) n (%). For the same molecule, the “Protein in urine, All” value (TEAE, Total N = 57) was 6 (10.5) n (%), the “Protein in urine, Gr≥3” value (TEAE, Total N = 57) was 0 n (%) and the “Vomiting, All” value (TEAE, Total N = 57) was 12 (21.1) n (%). The “Vomiting, Gr≥3” value (TEAE, Total N = 57) was 2 (3.5) n (%), the “WBC decreased, All” value (TEAE, Total N = 57) was 25 (43.9) n (%) and the “WBC decreased, Gr≥3” value (TEAE, Total N = 57) was 2 (3.5) n (%). The “ALT increased TRAE, All” value (Total N = 57) was 10 (17.5) n (%), the “ALT increased TRAE, Gr≥3” value (Total N = 57) was 1 (1.8) n (%) and the “AST increased TRAE, All” value (Total N = 57) was 10 (17.5) n (%). For the same molecule, the “AST increased TRAE, Gr≥3” value (Total N = 57) was 1 (1.8) n (%), the “Anemia TRAE, Gr≥3” value (Total N = 57) was 12 (21.1) n (%) and the “Any TEAE, All” value (Total N = 57) was 57 (100) n (%). For the same molecule, the “Any TEAE, Gr≥3” value (Total N = 57) was 27 (47.4) n (%), the “Any TEAE, events” value (Total N = 57) was 491 n ev and the “Any TEAE, patients” value (Total N = 57) was 57 (100) n (%). The “Any TRAE, All” value (Total N = 57) was 55 (96.5) n (%), the “Any TRAE, Gr≥3” value (Total N = 57) was 19 (33.3) n (%) and the “Appetite decreased TRAE, All” value (Total N = 57) was 13 (22.8) n (%). For the same molecule, the “Appetite decreased TRAE, Gr≥3” value (Total N = 57) was 0 n (%), the “Asthenia TRAE, All” value (Total N = 57) was 15 (26.3) n (%) and the “Asthenia TRAE, Gr≥3” value (Total N = 57) was 0 n (%). For the same molecule, the “Blood bilirubin increased TRAE, All” value (Total N = 57) was 8 (14.0) n (%), the “Blood bilirubin increased TRAE, Gr≥3” value (Total N = 57) was 1 (1.8) n (%) and the “Blood creatinine increased TRAE, All” value (Total N = 57) was 8 (14.0) n (%). For the same molecule, the “Blood creatinine increased TRAE, Gr≥3” value (Total N = 57) was 0 n (%), the “Hypokalemia TRAE, All” value (Total N = 57) was 6 (10.5) n (%) and the “Hypokalemia TRAE, Gr≥3” value (Total N = 57) was 0 n (%). The “Nausea TRAE, All” value (Total N = 57) was 14 (24.6) n (%), the “Nausea TRAE, Gr≥3” value (Total N = 57) was 0 n (%) and the “Neutrophil count decreased TRAE, All” value (Total N = 57) was 12 (21.1) n (%). The “Neutrophil count decreased TRAE, Gr≥3” value (Total N = 57) was 3 (5.3) n (%), the “Platelet count decreased TRAE, All” value (Total N = 57) was 16 (28.1) n (%) and the “Platelet count decreased TRAE, Gr≥3” value (Total N = 57) was 3 (5.3) n (%). The “SAEs, events” value (Total N = 57) was 12 n ev, the “SAEs, patients” value (Total N = 57) was 12 (21.1) n (%) and the “TEAE Grade ≥3, events” value (Total N = 57) was 41 n ev. For the same molecule, the “TEAE Grade ≥3, patients” value (Total N = 57) was 27 (47.4) n (%), the “TEAEs leading to death, events” value (Total N = 57) was 2 n ev and the “TEAEs leading to death, patients” value (Total N = 57) was 2 (3.5) n (%). The “TEAEs leading to dose discontinuation, events” value (Total N = 57) was 10 n ev, the “TEAEs leading to dose discontinuation, patients” value (Total N = 57) was 6 (10.5) n (%) and the “TEAEs leading to dose interruption, events” value (Total N = 57) was 23 n ev. The “TEAEs leading to dose interruption, patients” value (Total N = 57) was 15 (26.3) n (%), the “TEAEs leading to dose reduction, events” value (Total N = 57) was 10 n ev and the “TEAEs leading to dose reduction, patients” value (Total N = 57) was 8 (14.0) n (%). The “TRAEs Grade ≥3, events” value (Total N = 57) was 29 n ev, the “TRAEs Grade ≥3, patients” value (Total N = 57) was 19 (33.3) n (%) and the “TRAEs, events” value (Total N = 57) was 403 n ev. For the same molecule, the “TRAEs, patients” value (Total N = 57) was 55 (96.5) n (%), the “Vomiting TRAE, All” value (Total N = 57) was 10 (17.5) n (%) and the “Vomiting TRAE, Gr≥3” value (Total N = 57) was 1 (1.8) n (%). The “WBC decreased TRAE, All” value (Total N = 57) was 25 (43.9) n (%), the “WBC decreased TRAE, Gr≥3” value (Total N = 57) was 2 (3.5) n (%) and the “All other grade ≥3 TEAEs, incidence of each” value (all patients N = 57) was no more than 3.5%. The “Anemia causing study drug discontinuation, patients” value (all patients N = 57) was 5.3%, the “Grade ≥3 TEAE: anemia, incidence” value (all patients N = 57) was 21.1% and the “Grade ≥3 TEAE: neutrophil count decreased, incidence” value (all patients N = 57) was 5.3%. The “Grade ≥3 TEAE: platelet count decreased, incidence” value (all patients N = 57) was 5.3%, the “Grade ≥3 TEAEs, incidence” value (all patients N = 57) was 47.4% and the “Grade ≥3 TRAE: anemia, incidence” value (all patients N = 57) was 21.1%. For the same molecule, the “Overall incidence of grade ≥3 TRAEs” value (all patients N = 57) was 33.3%, the “Patients with senaparib-related adverse events (TRAEs)” value (all patients N = 57) was 96.5% and the “Serious adverse events considered related to senaparib, patients” value (all patients N = 57) was 12.3%. The “Serious adverse events, patients” value (all patients N = 57) was 21.1%, the “TEAEs causing dose interruption, patients” value (all patients N = 57) was 26.3% and the “TEAEs causing dose reduction, patients” value (all patients N = 57) was 14.0%. For the same molecule, the “TEAEs causing study drug discontinuation, patients” value (all patients N = 57) was 10.5%, the “TEAEs, number of events” value (all patients N = 57) was 491 events and the “Senaparib-related adverse event (TRAE): anemia, incidence” value (all patients N = 57, any grade) was 80.9%. For the same molecule, the “TEAE: anemia, incidence” value (all patients N = 57, any grade) was 80.9%, the “TEAE: asthenia, incidence” value (all patients N = 57, any grade) was 28.1% and the “TEAE: platelet count decreased, incidence” value (all patients N = 57, any grade) was 29.8%. For the same molecule, the “TEAE: white blood cell count (WBC) decreased, incidence” value (all patients N = 57, any grade) was 43.9%, the “TRAE: asthenia, incidence” value (all patients N = 57, any grade) was 26.3% and the “TRAE: platelet count decreased, incidence” value (all patients N = 57, any grade) was 28.1%. The “TRAE: white blood cell count decreased, incidence” value (all patients N = 57, any grade) was 43.9%, the “TEAEs resulting in death, patients” value (all patients N = 57, neither related to senaparib) was 3.5% and the “Patients with most frequent (hematologic) TRAEs of grade ≤3” value (in vivo) was greater than 90%. For the same molecule, the “Pneumonitis and venous thromboembolic events” value (present study) was “neither of which were observed” and the “Secondary hematologic tumors (AML/MDS)” value (present study population) was “no cases”.
